Literature values, collected in patent US11564958B2, “Compositions and methods of treatment of Ehlers-Danlos syndromes” (RESOLYS BIO, INC., priority 2017, dated 2023).

Tested on: rheumatoid arthritis
Conditions: reported in U.S. Pat. No. 4,704,273

NCCc1c[nH]cn1 [histamine, 4-(2-aminoethyl)-imidazole]
usefulness in alleviating symptoms of rheumatoid arthritis: not be useful
